Reference: patent USRE34918E, “Azaazulene compounds which are useful as antiallergic and antiinflammatory agents” (Kaken Pharmaceutical Co., Ltd., priority 1988, dated 1995)
In brackets after ≈: the same amount, converted by molar mass.

What was measured:
[1] = tested on: smooth musculus trachealis; experiment: Relaxant activity of smooth musculus trachealis in guinea pig; set-up: species or system guinea pig (male Hartley); conditions: Cavia porcellus; tracheal chain strips, 37° C.; read-out: Concentration for 50% relaxation
Experimental: Male Hartley guinea pigs weighing 350 to 550 g were bleed to death, and immediately the tracheae were extirpated. According to the method of Takagi et al [cf. Chem. Pharm. Bull., 8, 716 (1958)], tracheal chain strips was prepared, and the sample was suspended on Magnus apparatus under addition of load of 0.5 g. The test was carried out at 37° C. of liquid temperature. After position of tonus was examined with histamine (10^-6 g/ml) and isoproterenol (10^-7 g/ml), the test compound dissolved in a mixture of dimethyl sulfoxide and physiological saline was added thereto, and the test compound was investigated with respect to the effect on smooth musculus trachealis. Theophylline was used as a positive comparative drug. The relaxation and the contraction of smooth musculus trachealis were recorded on servocorder (SR 6342: commercially available from Watanabe Instruments Corp.) by connecting Isotonic Transducer (TD-1125: commercially available from Nihon Kohden Kogyo Co., Ltd.) to a balancing box.

[2] = tested on: histamine release from rat mast cell; experiment: Inhibitory activity against histamine release from rat mast cell; format: cell-based; conditions: 10 μg/ml, read-out: Inhibitory rate against histamine release
Experimental: An anti-dinitrophenylated-ovalbumin (anti DNP-OVA) rat antiserum having 800 of PCA titer in homologous passive cutaneous anaphylaxis reaction in rats for 48 hours was diluted double with physiological saline, and 1 ml of diluted antiserum was injected intraperitoneally into rats to be passively sensitized. On the next day, peritoneal exudation cell (hereinafter referred to as "PEC") was collected. The collected PEC was washed with a medium containing 0.1% BSA, and 1.5×10^5 of the PEC were added to each test tube. AFter incubation at 37° C. for 10 minutes, 50 μl of test compound solution in a same medium was added thereto. After 30 seconds, 50 μl of antigen solution (DVA-OVA 100 μg/ml) was further added thereto to give the total amount of 500 μl of the reaction mixture, and histamine release reaction was induced. After 10 minutes, 1 ml of physiological saline with cooled Tris buffered solution containing 1 mM EDTA were added thereto to stop the reaction. After centrifugation, the amount of histamine in supernatant was determined by fluorescence method according to the method of Shore et al [cf. J. Pharmacol. Exp. Ther., 127, 182 (1959)]. Inhibition rate against histamine release was calculated according to the following equation.
Inhibition rate against histamine release [formula] M: Amount of histamine in supernatant under addition of antigen and non-addition of test compound
S: Amount of histamine in supernatant under addition of antigen and test compound
B: Amount of histamine in supernatant under non-addition of antigen and test compound.
The test compound was used in a concentration of 10 μg/ml.

[3] = biological target: T1, 5-lipoxygenase (Cavia porcellus, UniProt A0A286X958); experiment: 5-lipoxygenase inhibiting activity in guinea pig; format: biochemical; conditions: read-out: Inhibition rate against 5-lipoxygenase activity
T1 construct: 5-lipoxygenase was prepared with polymorphonuclear leukocyte obtained from peritoneal cavity; endogenous in cells; host or cells: guinea pig peritoneal polymorphonuclear leukocytes (casein-elicited)
T1 sequence (A0A286X958 1-674): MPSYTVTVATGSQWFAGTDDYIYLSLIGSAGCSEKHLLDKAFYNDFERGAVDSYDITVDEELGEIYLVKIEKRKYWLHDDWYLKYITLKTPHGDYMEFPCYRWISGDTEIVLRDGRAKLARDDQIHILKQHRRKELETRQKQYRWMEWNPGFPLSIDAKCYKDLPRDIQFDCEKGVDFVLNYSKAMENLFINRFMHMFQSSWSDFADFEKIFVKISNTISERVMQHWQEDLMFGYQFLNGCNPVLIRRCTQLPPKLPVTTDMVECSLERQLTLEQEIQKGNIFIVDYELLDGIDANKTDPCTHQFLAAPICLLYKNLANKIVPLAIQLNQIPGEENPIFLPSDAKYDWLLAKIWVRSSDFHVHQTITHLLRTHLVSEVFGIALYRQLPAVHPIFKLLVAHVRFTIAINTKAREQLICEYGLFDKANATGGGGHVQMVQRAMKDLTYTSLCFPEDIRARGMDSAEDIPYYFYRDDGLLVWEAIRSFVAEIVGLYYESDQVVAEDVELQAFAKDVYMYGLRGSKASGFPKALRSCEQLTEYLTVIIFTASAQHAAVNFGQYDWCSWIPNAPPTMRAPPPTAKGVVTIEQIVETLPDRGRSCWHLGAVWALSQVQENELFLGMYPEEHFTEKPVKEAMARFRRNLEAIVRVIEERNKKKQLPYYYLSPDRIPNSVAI
Experimental: The test was carried out according to the method of Ochi [cf. J. Biol. Chem., 258, 5754-5758 (1983)]. Two % casein solution in saline was injected intraperitoneally into guinea pigs in an amount of 1/10 of body weight. After 16 hours, 5-lipoxygenase was prepared with polymorphonuclear leukocyte obtained from peritoneal cavity. Test compound and 5-lipoxygenase were pre-incubated at 30° C. for 10 minutes, CaCl2 (calcium chloride) and ^14 C-arachidonic acid were added thereto, and the resulting mixture was incubated for 20 minutes. A mixture of ethyl acetate/methanol/0.2M citric acid=30/4/1 (by volume) was added thereto to stop the reaction. After centrifugation, the organic solvent layer was spotted on a plate for thin layer chromatography and developed. Effect of the test compound was determined from the amount of ^14 C-5-hydroxyeicosatetraenoic acid (hereinafter referred to as "5-HETE") formed from ^14 C-arachidonic acid. Radioactivity of 5-HETE position was measured with a liquid scintillation counter.
Inhibition rate against 5-lipoxygenase activity was calculated according to the following equation.
Inhibition rate against 5-lipoxygenase activity [formula] A: Value of radioactivity in the control group B: Value of radioactivity in the test compound group
Each test compound was used in a concentration of 10 μM.

[4] = tested on: PCA (homologous passive cutaneous anaphylaxis) in rat; experiment: Inhibitory activity against PCA in rat; format: in vivo, rat (male Slc: Wistar); conditions: 5 mg/kg oral, 1 hour before antigen challenge; for inhibition in vivo at 5 mg/kg: Rattus norvegicus, read-out: Inhibition rate against PCA
Experimental: An anti-dinitrophenylated-ovalbumin (hereinafter referred to as "anti-DNP-OVA") rat antiserum having 800 of PCA titer in homologous passive cutaneous anaphylaxis reaction in rats for 48 hours, was diluted 200 times with physiological saline, and diluted antiserum was injected intradermally into back of groups of 5 male Slc: Wistar rats weighing 130-150 g in a volume of 50 μl/site to be passively sensitized. After 48 hours, 0.6 ml of 1% (w/v) Evans blue solution containing 1.5 mg of antigen DNP-OVA was administered intravenously into the tail. Thirty minutes later, the rats were bled to death and skin of the rats was removed. According to the method of Katayama et al [Microbiol. […] The test compound was suspended in 0.5% (w/v) aqueous solution of carboxymethylcellulose (hereinafter referred to as "CMC"), the suspension was administered orally in a ratio of 5 mg/kg 1 hour before challenging an antigen.
Inhibition rate against PCA was calculated according to the following equation. [formula] M: Amount of leaked pigment in antibody-sensitized site under administration of CMC without the test compound
S: Amount of leaked pigment in antibody-sensitized site under administration of the test compound in CMC
B: Amount of leaked pigment in antibody-nonsensitized site

[5] = Acute toxicity in mouse; format: in vivo; conditions: 2 weeks observation
Experimental: The test was carried out with the compounds obtained in Examples 5 and 9. Groups of 5 male ddy mice weighing 26 to 28 g were employed. The test compounds were suspended in a 0.5% CMC aqueous solution and the resulting suspension was administered orally in an amount of 500 for the compound obtained in Example 9, 1000 or 2000 mg/kg body weight. The survivors were kept under observation daily for 2 weeks. From the results shown in Table 6, the LD50 of the compounds obtained in Example 5 and 9 were estimated to be more than 2000 mg/kg. The other compounds of the present invention also had the same toxicity as the above compounds.

EC50 [1] [µg/mL] | inhibition at 10 µM [3] [%] | Compound | inhibition at 10 µg/mL [2] [%] | inhibition in vivo at 5 mg/kg [4] [%] | further results
42.3 (≈ 94.5 µM) | -2.6 | CCCc1c(OCCCn2c3cccccc-3c(-c3nn[nH]n3)c2=O)ccc(C(C)=O)c1O [Example 49] | 62.8 | – | –
7.8 (≈ 20.9 µM) | 12.2 | CC(C)c1cccc2n(CCCc3ccccc3)c(=O)c(-c3nn[nH]n3)c-2c1 [Example 30] | 99.5 | 10.8 ± 11.1 | –
12.4 (≈ 35.8 µM) | -9.4 | CC(C)c1cccc2n(Cc3ccccn3)c(=O)c(-c3nnn[nH]3)c-2c1 [Example 13, 5-Iso-propyl-1-(2-pyridylmethyl)-3-(5-tetrazolyl)-1-azaazulane-2-one] | 91.5 | – | –
– | 17.3 | CC(C)c1cccc2c(-c3nn[nH]n3)c(=O)n(CCCc3ccccc3)c-2c1 [Example 29] | 99.5 | – | –
– | -2.2 | CC(C)c1cccc2c(-c3nn[nH]n3)c(=O)n(CCCCc3ccccc3)c-2c1 [Example 51] | 63.6 | – | –
– | 60.6 | CC(C)c1cccc2c(-c3nnn[nH]3)c(=O)n(CCCCCc3ccccc3)c-2c1 [Example 7, 7-Iso-propyl-1-(5-phenylpentyl)-3-(5-tetrazolyl)-1-azaazulane-2-one] | 10.6 | – | –
52 (≈ 266 µM) | – | N#Cc1c2cccccc-2nc1N=[N+]=[N-] [Example 60, 2-Azido-3-cyano-1-azaazulene] | 65.3 | -27 ± 17.7 | –
43 (≈ 160 µM) | – | CC(C)c1cccc2c(-c3nnn[nH]3)c(=O)n(C)c-2c1 [Example 16] | 88.3 | – | –
13.1 (≈ 32.6 µM) | 27 | CC(C)c1cccc2n(CCCCCc3ccccc3)c(=O)c(-c3nnn[nH]3)c-2c1 [Example 6, 5-Iso-propyl-1-(5-phenylpentyl)-3-(5-tetrazolyl)-1-azaazulane-2-one] | 6.3 | – | –
– | 5.2 | N#Cc1c2cccccc-2nc1NCC(=O)O [Example 62, 3-Cyano-2-carboxymethylamino-1-azaazulene] | 82.5 | 14 ± 4.3 | –
28 (≈ 89.9 µM) | – | CCCCn1c2cc(C(C)C)cccc-2c(-c2nnn[nH]2)c1=O [Example 18] | 86.9 | – | –
– | 18.3 | O=c1c(-c2nn[nH]n2)c2cccccc-2n1CSc1ccccc1 [Example 44] | 85 | – | –
– | -1.1 | CC(C)(C)c1cc(C(=O)Cn2c3cccccc-3c(-c3nn[nH]n3)c2=O)cc(C(C)(C)C)c1O [Example 48] | 10.4 | – | –
44 (≈ 141 µM) | – | CCCCn1c2cccc(C(C)C)cc-2c(-c2nnn[nH]2)c1=O [Example 19] | 83.4 | – | –

More lines, now with the values behind:

Compound | EC50 [1] [µg/mL] | inhibition at 10 µM [3] [%] | inhibition at 10 µg/mL [2] [%] | inhibition in vivo at 5 mg/kg [4] [%] | further results
CC(C)c1cccc2c(-c3nnn[nH]3)c(=O)[nH]c-2c1 [Example 2, 7-Iso-propyl-3-(5-tetrazolyl)-1-azaazulane-2-one] | 25 (≈ 97.9 µM) | – | 81.4 | – | –
CC(C)c1cccc2c(-c3nnn[nH]3)c(=O)n(Cc3ccccc3)c-2c1 [Example 5, 7-Iso-propyl-1-benzyl-3-(5-tetrazolyl)-1-azaazulane-2-one] | 1.2 (≈ 3.47 µM) | 1.5 | 81.1 | 94.8 ± 5.1 | Mortality ([5]; 1000 mg/kg p.o.): 0/5; Mortality ([5]; 2000 mg/kg p.o.): 0/5; LD50 at 336 h ([5]; mouse, in vivo, oral): > 2000 mg/kg
CC(C)c1cccc2n(Cc3ccccc3)c(=O)c(-c3nnn[nH]3)c-2c1 [Example 4, 5-Iso-propyl-1-benzyl-3-(5-tetrazolyl)-1-azaazulane-2-one] | 6.6 (≈ 19.1 µM) | -1.1 | 84.4 | 78.2 ± 4.1 | –
CC(C)c1cccc2[nH]c(=O)c(-c3nnn[nH]3)c-2c1 [Example 1, 5-Iso-propyl-3-(5-tetrazolyl)-1-azaazulane-2-one] | 47 (≈ 184 µM) | – | 78.6 | – | –
CCCCn1c2cccccc-2c(-c2nnn[nH]2)c1=O [Example 17] | – | – | 89.5 | -1.9 ± 9.2 | –
Cn1c(=O)c2[nH]cnc2n(C)c1=O [theophylline, reference compound] | 6.8 (≈ 37.7 µM) | – | – | – | –
Cc1ccc2c([nH]c(=O)c3c(=O)cc(C(=O)OCCC(C)C)oc32)c1C [repirinast, Isopentyl 5,6dihydro-7,8-dimethyl-4,5-dioxo-4Hpyrano[3,2c]quinoline2-carboxylate, reference compound] | – | – | – | 36.2 ± 5.8 | –
O=c1c(-c2nnn[nH]2)c2cccccc-2n1Cc1ccccc1 [Example 3, 1-Benzyl-3-(5-tetrazolyl)-1-azaazulane-2-one] | – | 63.2 | 84.9 | 98.6 ± 3.5 | –
5(3-Butyloxyallylaminophenyl)-1H-tetrazole [WP-833, reference compound] | – | – | – | – | Inhibition rate against PCA [4]: 42.8 ± 5.1%
